Laboratory results as given in ChEMBL document CHEMBL1124465, “Dynamics and thermodynamics of the counterion effect in a 7H-pyridocarbazole dimer (ditercalinium). Hypothesis of a nonbisintercalative binding mode to calf thymus DNA at high drug/base ratio” (J Med Chem, 1989).

What was measured:
Nucleic Acid [1] = assay: Monointeraction into calf thymus DNA at pH 5; assay type: nucleic-acid assay
Nucleic Acid [2] = assay: Monointeraction into calf thymus DNA at pH 7.4; assay type: nucleic-acid assay

- Ka (Nucleic Acid [1]): 5e+08 M⁻¹
- Ka (Nucleic Acid [2]): 2e+07 M⁻¹
SMILES: COc1ccc2[nH]c3ccc4cc[n+](CCN5CCC(C6CCN(CC[n+]7ccc8ccc9[nH]c%10ccc(OC)cc%10c9c8c7)CC6)CC5)cc4c3c2c1
